Measurements reported in patent US10815275B2, “Antimicrobial peptoids with improved selectivity and use thereof” (priority 2018, dated 2020).
Values after ≈ are worked out from the molar mass of the structure shown. Non-standard residues stand in square brackets, D forms with d. Residues, ends and D or L forms follow the SMILES beside them. Nspe = C[C@H](NCC(=O)O)c1ccccc1; Nlys = NCCCCNCC(=O)O

Legend:
E. coli strain ATCC25922 = type: cell-based; conditions: strain ATCC25922
In short: (§1)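 Broth microdilution in cation-adjusted Mueller Hinton Broth used 2×10^5 CFU/mL in medium with 0.2% BSA and 0.01% acetic acid. Peptoids were 2-fold serially diluted, and plates were incubated 18 hours at 37° C. with absorbance read at 600 nm. MIC was the lowest concentration completely suppressing growth, averaged over three independent experiments; MBC was also determined.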

[1] = system: S. aureus strain KCTC1621; type: cell-based; conditions: strain KCTC1621
In short: as §1

E. coli = assay: Selectivity analysis, HD10 divided by MIC for E. coli; conditions: HD10 of Table 6 divided by MIC for E. coli ATCC25922
Experimental: In order to identify changes in selectivity depending on alteration of degree of folding in helical structure of peptoids, selectivity of each peptoid was calculated using the resultant values measured in the Experimental Examples 1 and 2. The selectivity was obtained by dividing the HD10 value by the minimum inhibitory concentration for E. coli (Table 8).

B. subtilis = type: cell-based; conditions: LB medium, 18 h
In short: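 B. subtilis or E. coli DH5α grown 18 h at 37 °C in LB, diluted to 2×10^5 CFU/mL and exposed to 2-fold serial peptoid dilutions for 18 h at 37 °C. Growth read by A600; MIC taken as lowest concentration fully suppressing growth, averaged over three independent experiments.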

red blood cells = assay: Hemolytic activity on red blood cells; type: cell-based, mouse
In short: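 Washed mouse red blood cells (10% v/v in PBS, pH 7.4) incubated with peptoids for 1 h at 37 °C; released haemoglobin read at 540 nm. % hemolysis normalised to 0.1% Triton X-100 (100%) and PBS blank; HD10, HD50 derived, Hmax taken at 200 μM top concentration.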

[2] = system: S. epidermidis (ET-024 MRSA); assay: MIC in multidrug-resistant bacteria panel, modified microdilution; type: cell-based; conditions: overnight, 37° C.
Experimental: (§2) Minimum inhibitory concentrations of the prepared peptoids for multidrug-resistant bacteria were measured using a modified microdilution method in Difco Mueller Hinton medium, and tests were done on a panel of bacterial pathogens which have resistance and tolerance against common antibiotics.
(§3) Briefly, a peptoid concentrate, which is 10-fold more concentrated than a final concentration, was serially diluted with a medium containing 0.2% bovine serum albumin and 0.01% acetic acid. 10 μL of the 10-fold concentrated peptoid concentrate and 90 μL of Muller Hinton medium were added to each well of a 96-well polypropylene microtitre plate. Bacteria were added to the plate so that a final concentration thereof was 2×10^5 CFU/mL, and then incubated overnight at a temperature of 37° C. The minimum inhibitory concentration was defined as a concentration at which no bacterial growth is observed.

E. coli (63103 ESBL) = assay: as above; type: cell-based; conditions: overnight, 37° C.
Experimental: as §2, §3

S. aureus (ATCC25923) = assay: as above; type: cell-based; conditions: overnight, 37° C.
Experimental: as §2, §3

## C[C@@H](c1ccccc1)N(CC(N)=O)C(=O)CN(C(=O)CN(CCCCN)C(=O)CN(C(=O)CN(C(=O)CN(CCCCN)C(=O)CN(C(=O)CN(C(=O)CN(CCCCN)C(=O)CN(C(=O)CN(C(=O)CNCCCCN)[C@@H](C)c1ccccc1)[C@@H](C)c1ccccc1)[C@@H](C)c1ccccc1)[C@@H](C)c1ccccc1)[C@@H](C)c1ccccc1)[C@@H](C)c1ccccc1)[C@@H](C)c1ccccc1 [compound 1] (H-[Nlys][Nspe][Nspe][Nlys][Nspe][Nspe][Nlys][Nspe][Nspe][Nlys][Nspe][Nspe]-NH2)
E. coli strain ATCC25922
  MBC E. coli: 3.1 µM (≈ 5.64 µg/mL)
[1]
  MBC S. aureus: 1.6 µM (≈ 2.91 µg/mL)
E. coli
  Selectivity [HD10/MIC (E. coli)]: 0.4
B. subtilis
  MIC B. subtilis: 0.8 µM (≈ 1.46 µg/mL)
Red blood cells; Table 6, hemolysis rate at 200 μM
  Hmax (%): 113.4 ± 2.0%
Red blood cells; Table 6, peptoid concentration causing 10% hemolysis, highest concentration 200 μM, in µM (unit assumed)
  HD10: 1.2
Red blood cells; Table 6, peptoid concentration causing 50% hemolysis, highest concentration 200 μM, in µM (unit assumed)
  HD50: 42.8
Red blood cells; Table 13, hemolysis rate at highest concentration 200 μM
  Hmax (%): 100%
[2]
  minimum inhibitory concentration S. epidermidis (ET-024 MRSA): <0.8 to 0.8
E. coli (63103 ESBL)
  minimum inhibitory concentration E. coli (63103 ESBL): 1.6
S. aureus (ATCC25923)
  minimum inhibitory concentration S. aureus (ATCC25923): 1.6
